Measurements as given in patent US8829021B2, “Treatment of pediatric tumors” (Sigma-Tau Industrie Farmaceutiche Riunite S.p.A., priority 2007, dated 2014).
“And” between values parts separate entries of the source, which are not always exact repeats. Equal entries are not always repeated.

What was measured:
[1] = tested on: TE-671 (rhabdomyosarcoma); assay: In vivo antitumoral activity, TE-671 rhabdomyosarcoma xenograft; set-up: species or system nude athymic mice (human tumor xenograft); settings: 30 mg/kg i.v., q4dx4
Description: (§1) Exponentially growing tumor cells were injected s.c. into nude athymic mice. The number of tumor cells was previously chosen by a growth curve. […] Animals were housed under a light-dark cycle, keeping temperature and humidity constant. Parameters of the animal rooms were assessed as follows: 22±2° C. temperature, 55±10% relative humidity, about 15-20 filtered air changes/hour and 12 hour circadian cycle of artificial light (7 a.m., 7 p.m.). At request, the environmental conditions were monitored and the data are retained in Animal Housing Archives. Drinking water was supplied ad libitum. Each mouse was offered daily a complete pellet diet (GLP 4RF21, Mucedola) throughout the study. The analytical certificates of animal food and water are retained at Sigma-Tau premises. All animals were weighed before starting the experiment and were subdivided into the different dosage groups.
(§2) Tumor growth was followed by biweekly measurements of tumor diameters with a Vernier caliper. Tumor volume (TV, mm^3) was calculated as: [length (mm)×width (mm)^2]/2, where the width and the length are the shortest and the longest diameters of each tumor, respectively.
(§3) The efficacy of the drug treatment was assessed as tumor volume inhibition (TVI %) in treated versus control mice, calculated as: 100−[(mean tumor volume of treated animals/mean tumor volume of control animals)×100].

[2] = tested on: PFSK (primitive neuroectodermal tumors/PNET); assay: In vivo antitumoral activity, PFSK primitive neuroectodermal tumor (PNET) xenograft; set-up: species or system nude athymic mice (human tumor xenograft); settings: 30 mg/kg i.v., q4dx4
Description: as §1, §2, §3

[3] = Toxicity of the drug treatments in tumor-bearing mice; type: in vivo, nude athymic mice; settings: treatment i.v., q4dx4
Description: (§4) The antitumor effect was evaluated against different human pediatric tumor models: SK-ND-AS (neuroblastoma); PSFK (primitive neuroectodermal tumors/PNET); TE-671 (rhabdomyosarcoma). ST 1968 was evaluated in comparison to CPT-11 (irinotecan) by intravenously delivery of 30 mg/10 ml/kg for ST1968 and 50 mg/10 ml/kg for CPT-11 according to the schedule q4dx4.
(§5) Exponentially growing tumor cells were injected s.c. into nude athymic mice. The number of tumor cells was previously chosen by a growth curve. Mice were housed inside cages of makrolon (33.2×15×13 cm) with stainless steel cover-feed and sterilized and dust-free bedding cobs. Animals were housed under a light-dark cycle, keeping temperature and humidity constant. Parameters of the animal rooms were assessed as follows: 22±2° C. temperature, 55±10% relative humidity, about 15-20 filtered air changes/hour and 12 hour circadian cycle of artificial light (7 a.m., 7 p.m.). At request, the environmental conditions were monitored and the data are retained in Animal Housing Archives. Drinking water was supplied ad libitum. […]
The toxicity of the drug treatments was determined as: body weight loss percent (% BWL max)=100−(mean BWday x/mean BWday 1×100), where BWx is the mean BW at the day of maximal loss during the treatment and BW1 is the mean BW on the 1st day of treatment.

[4] = tested on: SK-N-AS (neuroblastoma); assay: In vivo antitumoral activity, SK-N-AS neuroblastoma xenograft; set-up: species or system nude athymic mice (human tumor xenograft); settings: SK-N-AS xenograft s.c. in nude mice; 30 mg/kg i.v., q4dx4
Description: as §1, §2, §3

[5] = tested on: human pediatric tumor xenograft models; assay: In vivo antitumoral activity on different pediatric tumor xenograft models (overall); set-up: species or system nude athymic mice (human tumor xenograft); settings: all models, compared with CPT-11; 30 mg/kg i.v., q4dx4
Description: as §4, §5
Tumor growth was followed by biweekly measurements of tumor diameters with a Vernier caliper. Tumor volume (TV, mm^3) was calculated as: [length (mm)×width (mm)^2]/2, where the width and the length are the shortest and the longest diameters of each tumor, respectively. […]

With `CC[C@@]1(O)C(=O)OCc2c1cc1n(c2=O)Cc2c-1nc1ccccc1c2/C=N\OCCN` [ST1968, 7-(2-amino)ethoxyiminomethylcamptothecin] the “TVI % (tumor volume inhibition)” value ([1]; TE-671 xenograft s.c. in nude mice, 30 mg/kg) was 100% and 99%, the “complete responses (in words)” value ([1]; rhabdomyosarcoma model) was “high rate of complete responses” and the “TVI % (tumor volume inhibition)” value ([2]; PFSK xenograft s.c. in nude mice, 30 mg/kg) was 99% and 100%. The “complete responses (in words)” value ([2]; PNET model) was “high rate of complete responses”, the “tolerability / signs of acute or delayed toxicity (in words)” value [3] was “generally well tolerated by mice with no signs of acute or delayed toxicity” and the “TVI % (tumor volume inhibition)” value [4] was 98%. The “antitumor activity / complete tumor regressions (in words)” value [5] was “appreciable rate of complete tumor regressions in all models”.
